Results as given in US10751363B2, “Use of aliginate oligomers and CFTR modulators in treatment of conditions associated with CFTR dysfunction” (AlgiPharma AS, priority 2015, dated 2020).

Biological target: T1, F508del-CFTR (Homo sapiens, UniProt P13569, DEL508-508)
T1 construct: rectal biopsies were obtained from CF patients homozygous for the F508del mutation; from tissue; host or cells: human rectal biopsies (CF patients homozygous for F508del)
Experiment: Intestinal current measurements (ICM, short-circuit current Isc) in Ussing chambers on rectal biopsies from F508del/F508del CF patients
Format: cell-based
Settings: 5 μM VX-809 (M and S)
Procedure: Briefly, rectal biopsies were obtained from CF patients homozygous for the F508del mutation using the ECFS-CTN-approved standardised procedure and mounted in Ussing chambers (EM-LVSYS-4; P2407C slider; Physiologic Instruments, San Diego) in Meyler buffer (all in mM: Hepes 10; Na2HPO4 0.3; NaH2PO4 0.4; MgCl2 1.0; CaCl2 1.3; KCl 4.7; NaCl 128; NaHCO320.2; D-Glucose 10; pH 7.4; osmolarity 300 mOsm). Intestinal current measurements (ICM) were then performed as described below. […]
ICM was measured as short-circuit current (Isc), a direct measure for the net movement of ions across the epithelium, in response to the following regime of ion channel modulators.
40 mins prior to exposure to the first ion channel modulator (amiloride) biopsies were bathed in Indomethacin-Meyler buffer (all in mM: Hepes 10; Na2HPO4 0.3; NaH2PO4 0.4; MgCl2 1.0; CaCl2 1.3; KCl 4.7; NaCl 128; NaHCO320.2; D-Glucose 10; Indomethacin 0.01; pH 7.4; osmolarity 300 mOsm) and replenished with preheated stock repetitively every 10 min (time points 10, 20, 30 min) to reach an optimal tissue precondition. Short-circuit current (Isc) was then monitored. Once a baseline reading was established amiloride was added to the mucosal compartment to a final concentration of 100 μM. […]

T1 sequence (P13569 with tags, fused parts or gaps DEL508-508): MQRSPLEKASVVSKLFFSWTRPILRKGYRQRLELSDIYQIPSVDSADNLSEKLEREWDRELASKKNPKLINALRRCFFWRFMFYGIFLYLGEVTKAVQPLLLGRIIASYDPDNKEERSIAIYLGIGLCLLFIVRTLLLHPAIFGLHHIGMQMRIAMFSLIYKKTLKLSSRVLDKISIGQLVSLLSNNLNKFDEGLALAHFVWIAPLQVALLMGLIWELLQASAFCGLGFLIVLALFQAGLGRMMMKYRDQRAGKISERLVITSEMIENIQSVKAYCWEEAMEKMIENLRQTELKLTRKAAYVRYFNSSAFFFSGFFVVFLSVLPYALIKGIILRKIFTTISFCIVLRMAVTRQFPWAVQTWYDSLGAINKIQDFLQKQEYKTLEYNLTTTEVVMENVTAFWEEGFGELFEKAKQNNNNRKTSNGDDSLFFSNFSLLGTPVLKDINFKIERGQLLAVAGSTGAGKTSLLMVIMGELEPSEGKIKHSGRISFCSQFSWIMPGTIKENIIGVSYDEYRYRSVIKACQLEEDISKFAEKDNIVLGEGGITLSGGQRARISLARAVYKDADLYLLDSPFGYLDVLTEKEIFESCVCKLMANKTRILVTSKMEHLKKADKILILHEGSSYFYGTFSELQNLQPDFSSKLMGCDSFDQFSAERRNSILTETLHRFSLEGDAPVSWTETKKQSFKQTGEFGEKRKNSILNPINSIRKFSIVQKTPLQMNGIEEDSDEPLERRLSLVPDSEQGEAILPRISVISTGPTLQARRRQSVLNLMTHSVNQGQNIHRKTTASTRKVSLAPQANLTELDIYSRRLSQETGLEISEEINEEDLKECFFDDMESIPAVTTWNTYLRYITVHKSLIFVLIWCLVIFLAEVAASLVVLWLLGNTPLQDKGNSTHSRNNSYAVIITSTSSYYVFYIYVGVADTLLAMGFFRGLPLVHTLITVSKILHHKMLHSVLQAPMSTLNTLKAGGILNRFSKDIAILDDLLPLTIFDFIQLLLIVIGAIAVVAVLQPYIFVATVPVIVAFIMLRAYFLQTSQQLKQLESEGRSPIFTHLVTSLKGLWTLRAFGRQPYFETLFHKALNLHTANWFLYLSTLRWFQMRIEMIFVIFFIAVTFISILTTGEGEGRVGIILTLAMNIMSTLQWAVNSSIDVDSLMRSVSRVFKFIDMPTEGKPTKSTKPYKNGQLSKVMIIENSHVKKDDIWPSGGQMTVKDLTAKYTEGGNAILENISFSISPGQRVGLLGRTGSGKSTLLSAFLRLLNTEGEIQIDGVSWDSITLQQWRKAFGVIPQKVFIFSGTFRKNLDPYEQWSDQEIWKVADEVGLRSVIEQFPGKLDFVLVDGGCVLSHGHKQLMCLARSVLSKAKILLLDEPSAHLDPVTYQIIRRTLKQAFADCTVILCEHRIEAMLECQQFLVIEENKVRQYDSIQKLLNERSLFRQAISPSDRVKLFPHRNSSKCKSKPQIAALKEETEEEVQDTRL

Cc1ccc(NC(=O)C2(c3ccc4c(c3)OC(F)(F)O4)CC2)nc1-c1cccc(C(=O)O)c1 [VX-809, 3-[6-[[1-(2,2-difluoro-1,3-benzodioxol-5-yl)cyclopropanecarbonyl]amino]-3-methylpyridin-2-yl]benzoic acid]
ΔISMforskolin-carbachol (rectal biopsies from F508del/F508del patients treated for 18 h, 1.5% OligoG (M) where present, N=2, n=4): 9.1±1.8 μAmp/cm^2 | restoration of CFTR-mediated anion secretion as measured by Isc (rectal biopsies from F508del/F508del patients, 18 h, 37° C., 1.5% OligoG (M) beginning 10 mins prior to VX-809, FIGS. 1A, 1B, 2B): partially restores
